Experimental findings from patent US5914348A, “Substance FA-70D, process for producing the same, and uses thereof” (Taiho Pharmaceutical Co., Ltd., priority 1996, dated 1999) are described below.

The target in data set [1] is cathepsin B (Homo sapiens, UniProt P07858). Put plainly: Inhibitory activity against cathepsin B (fluorescence, carbobenzoxy-L-phenylalanyl-L-arginine-4-methylcoumaryl-7-amide substrate). The class given is biochemical. The note with it: pH 6.0, 40° C., read-out: Enzyme inhibitory activity (%). How it is done: (§1) The inhibitory activity against cathepsin L or cathepsin B was assayed by the method of A. J. Barrett et al. [Biochemical Journal, 201, 189-198, 1982]. The chymotrypsin- or trypsin-hibitory activity was assayed in accordance with the methods described in Tsuru, D. and Funatsu, M. (ed.), Seikagaku Jikkenho-Tanpakushitsu Bunkai Koso II [Methods of Biochemistry, Proteolytic Enzymes II], vol. 31, 7-14, 1993.
(§2) The method for assay of inhibitory activity against cathepsin B is as follows. Thus, 0.5 ml of 400 mM sodium phosphate buffer (pH 6.0) containing 8 mM dithiothreitol and 4 mM tetrasodium ethylenediaminetetracetate, 0.8 ml of an enzyme solution containing 5 μM cathepsin B and 0.1% Brij 35 (Wako Pure Chemical Ind.), and 0.2 ml of an aqueous solution of the compound of the invention were preincubated at 40° C. for 10 minutes. […] The intensity of fluorescence (F) was determined at an exciting wavelength of 350 nm and an emission wavelength of 458 nm. As a control, 0.2 ml of water was added in lieu of 0.2 ml of said aqueous solution of the compound of the invention and the intensity of fluorescence (F0) at 458 nm was similarly measured. The enzyme inhibitory activity was calculated by means of the following formula. […]

Data set [2] has as its target cathepsin L (Homo sapiens, UniProt P07711). Put plainly: Inhibitory activity against cathepsin L (fluorescence, carbobenzoxy-L-phenylalanyl-L-arginine-4-methylcoumaryl-7-amide substrate). The class given is biochemical. How it is done:
as §1
The method for assay of inhibitory activity against cathepsin B is as follows. Thus, 0.5 ml of 400 mM sodium phosphate buffer (pH 6.0) containing 8 mM dithiothreitol and 4 mM tetrasodium ethylenediaminetetracetate, 0.8 ml of an enzyme solution containing 5 μM cathepsin B and 0.1% Brij 35 (Wako Pure Chemical Ind.), and 0.2 ml of an aqueous solution of the compound of the invention were preincubated at 40° C. for 10 minutes. Then, 0.5 ml of a 0.1% aqueous solution of dimethyl sulfoxide containing 20 μM carbobenzoxy-L-phenylalanyl-L-arginine-4-methylcoumaryl-7-amide was added and the mixture was incubated at 40° C. for 10 minutes. The enzymatic reaction was then stopped by adding 2.0 ml of 100 mM sodium acetate buffer (pH 4.3) containing 100 mM sodium monochloroacetate. The intensity of fluorescence (F) was determined at an exciting wavelength of 350 nm and an emission wavelength of 458 nm. As a control, 0.2 ml of water was added in lieu of 0.2 ml of said aqueous solution of the compound of the invention and the intensity of fluorescence (F0) at 458 nm was similarly measured. The enzyme inhibitory activity was calculated by means of the following formula.
(§3) Enzyme inhibitory activity (%)=F/F0 ×100
The inhibitory activity against cathepsin L was assayed as follows. Thus, except that cathepsin L was used in lieu of cathepsin B at the same concentration and the 400 mM sodium phosphate buffer was adjusted to pH 5.5, the above assay procedure for cathepsin B was otherwise repeated to determine the enzyme inhibitory activity.

For data set [3], the target named is chymotrypsin (Bos taurus, UniProt P00766). Description: Inhibitory activity against chymotrypsin (fluorescence, succinyl-L-leucyl-L-leucyl-L-valyl-L-tyrosine-4-methylcoumaryl-7-amide substrate). The class given is biochemical. How it is done:
as §1
(§4) The inhibitory activity against chymotrypsin was assayed in the following manner. Thus, 0.1 ml of 100 mM Tris-HCl buffer (pH 7.5), 0.15 ml of water, 0.01 ml of 5 ng/ml chymotrypsin/water, and 0.04 ml of an aqueous solution of the compound of the invention were preincubated at 37° C. for 5 minutes. Then, 0.1 ml of an aqueous solution containing 100 μM succinyl-L-leucyl-L-leucyl-L-valyl-L-tyrosine-4-methylcoumaryl-7-amide was added and the mixture was incubated at 37° C. for 20 minutes. The enzymatic reaction was stopped by adding 0.5 ml of 100 mM sodium acetate buffer (pH 4.3) containing 100 mM sodium monochloroacetate and the intensity of fluorescence (F) was measured at an exciting wavelength of 350 nm and an emission wavelength of 458 nm. As a control, 0.04 ml of water was added in lieu of 0.04 ml of said aqueous solution of the compound of the invention and the intensity of fluorescence (F0) at 458 nm was similarly measured. The enzyme inhibitory activity was calculated by the following formula.
as §3

Data set [4] addresses T1, trypsin (Bos taurus, UniProt P00760).
T1 sequence (P00760 24-246): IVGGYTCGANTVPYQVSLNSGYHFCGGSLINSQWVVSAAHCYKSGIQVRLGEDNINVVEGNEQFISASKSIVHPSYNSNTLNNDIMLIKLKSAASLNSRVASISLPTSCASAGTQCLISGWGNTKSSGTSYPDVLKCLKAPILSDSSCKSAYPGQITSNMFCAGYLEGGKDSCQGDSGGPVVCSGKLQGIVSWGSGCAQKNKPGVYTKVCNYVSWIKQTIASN
Put plainly: Inhibitory activity against trypsin (fluorescence, benzoyl-L-leucyl-L-lysyl-arginine-4-methylcoumaryl-7-amide substrate). The class given is biochemical. The note with it: pH 7.5, 37° C., read-out: Enzyme inhibitory activity (%). The protocol:
as §1, §4, §3
The inhibitory activity against trypsin was measured as follows. Except that trypsin was used in lieu of chymotrypsin at the same concentration and benzoyl-L-leucyl-L-lysyl-arginine-4-methylcoumaryl-7-amide was used in lieu of succinyl-L-leucyl-L-leucyl-L-valyl-L-tyrosine-4-methylcoumaryl-7-amide at the same concentration, the above procedure for assaying the inhibitory activity against chymotrypsin was otherwise repeated and the enzyme inhibitory activity was calculated in the same manner as above.

The target in data set [5] is T2, papain (Carica papaya, UniProt P00784).
T2 sequence (P00784 134-345): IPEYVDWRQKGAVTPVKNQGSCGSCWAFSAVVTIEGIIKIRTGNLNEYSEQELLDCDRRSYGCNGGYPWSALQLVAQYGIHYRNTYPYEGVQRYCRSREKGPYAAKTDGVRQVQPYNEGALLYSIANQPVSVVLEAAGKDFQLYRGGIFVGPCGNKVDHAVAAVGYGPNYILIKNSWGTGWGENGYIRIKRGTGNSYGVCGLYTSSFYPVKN
Put plainly: Assay of papain inhibitory activity. The class given is biochemical. The settings on record: used for identification during purification. How it is done:
Detection of active fractions containing Substance FA-70D in each stage was carried out by the assay of papain inhibitory activity (Biochemical Journal, 201, 189-198, 1982).
Thus, 0.5 ml of 400 mM sodium phosphate buffer (pH 6.8) containing 8 mM dithiothreitol and 4 mM tetrasodium ethylenediaminetetracetate, 0.8 ml of an enzyme solution containing 5 μM papain and 0.1% Brij 35 (polyoxyethylene (23) lauryl ether) (Wako Pure Chemical Ind.), and 0.2 ml of an aqueous solution containing a sample were preincubated at 40° C. for 10 minutes. Then, 0.5 ml of a 0.1% aqueous solution of dimethyl sulfoxide containing 20 μM carbobenzoxy-L-phenylalanyl-L-arginine-4-methylcoumaryl-7-amide was added and the mixture was incubated at 40° C. for 10 minutes. The enzymatic reaction was stopped by adding 2.0 ml of 100 mM sodium acetate buffer (pH 4.3) containing 100 mM sodium monochloroacetate and the intensity of fluorescence (F) was measured at an exciting wavelength of 350 nm and an emission wavelength of 458 nm. As a control, 0.2 ml of water was added in lieu of 0.2 ml of said aqueous solution of the sample and the intensity of fluorescence (F0) at 458 nm was similarly measured. The enzyme inhibitory activity was calculated by means of the following formula.
as §3

Data set [6] is described as follows: Solubility. The class given is physicochemical.
The test system of data set [7] is cathepsin series proteases. Put plainly: Inhibition of cathepsin series proteases. The class given is biochemical. The protocol:
as §1, §2

Numbered stars: 1 amine (or outer) side, 2 acyl side, 3 side chain; on linkers, the order of the positions; unused ones are H or OH. Square brackets hold non-standard residues; d marks the D form. Peptide text beside a SMILES is read from it. Cit = NC(=O)NCCC[CH](N)C(=O)O; Phe(ol) = N[CH](CO)Cc1ccccc1; CO = O=C([*:1])[*:2]

Sequence of cathepsin L (P07711 114-333, species assumed): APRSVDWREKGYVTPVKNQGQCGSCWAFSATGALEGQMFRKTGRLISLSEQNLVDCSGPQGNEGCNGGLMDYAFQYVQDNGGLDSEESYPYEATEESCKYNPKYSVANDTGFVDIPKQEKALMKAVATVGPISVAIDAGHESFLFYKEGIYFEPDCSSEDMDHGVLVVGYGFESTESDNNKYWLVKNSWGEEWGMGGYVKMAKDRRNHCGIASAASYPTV

Consider `CC(C)C(NC(=O)C(CCCNC(N)=O)NC(=O)NC(Cc1ccccc1)C(=O)O)C(=O)NC(CO)Cc1ccccc1` (stereo not drawn) [Substance FA-70D] ({Phe-CO}-[Cit]-Val-[Phe(ol)]; configuration not given here), for which the inhibition at 1 µM in data set [1] (FA-70D 10^-6 M) came out at 85.5%; in data set [2] (cathepsin L, FA-70D 10^-6 M, pH 5.5, 40° C., read-out: Enzyme inhibitory activity (%)) it was 93.5%; in data set [3] (chymotrypsin, FA-70D 10^-6 M, pH 7.5, 37° C., read-out: Enzyme inhibitory activity (%)), 99.9%; in data set [4] (FA-70D 10^-6 M) it was 43.3%. Moreover, the inhibition at 0.1 µM in data set [1] (FA-70D 10^-7 M) is 23.7%; in data set [2] (cathepsin L, FA-70D 10^-7 M, pH 5.5, 40° C., read-out: Enzyme inhibitory activity (%)) it was 72%; in data set [3] (chymotrypsin, FA-70D 10^-7 M, pH 7.5, 37° C., read-out: Enzyme inhibitory activity (%)), 97.6%; in data set [4] (FA-70D 10^-7 M), 14%. For the same molecule, the “inhibits cathepsin L more strongly than cathepsin B” value in data set [2] (cathepsin L vs cathepsin B, Test Example 1) is reported as “inhibits cathepsin L more strongly than cathepsin B”. Also, the inhibition at 0.01 µM in data set [2] (cathepsin L, FA-70D 10^-8 M, pH 5.5, 40° C., read-out: Enzyme inhibitory activity (%)) amounted to 15.1%; in data set [3] (chymotrypsin, FA-70D 10^-8 M, pH 7.5, 37° C., read-out: Enzyme inhibitory activity (%)), 70.7%; in data set [4] (FA-70D 10^-8 M) it was 9.4%. Moreover, the “inhibits chymotrypsin more strongly than trypsin” value in data set [3] (chymotrypsin vs trypsin, Test Example 1) was “inhibits chymotrypsin more strongly than trypsin”. Moreover, in data set [5], the “enzymatic activity of papain inhibited by the substance” value was “inhibited by the substance”. The Solubility result in data set [6] (in chloroform, acetone, ethyl acetate, ether, and hexane) was “Practically insoluble”; in data set [6] (in ethanol) it was “slightly soluble”; in data set [6] (in methanol and dimethylsulfoxide), “readily soluble”. Besides, the “inhibit cathepsin series proteases” value in data set [7] was “strongly inhibit”.
